Assay results taken from patent US20240325398A1, “COMBINATION THERAPIES” (Infinity Pharmaceuticals, Inc., priority 2014, published 2024).

Assays:
Assay in all cases: Combination study, ATPLite 72 h, dose matrix (Synergy Score, CI50)
[1] = tested on: SU-DHL-4-epst
Protocol: (§1) Cells are thawed from a liquid nitrogen preserved state. Once cells have been expanded and divide at their expected doubling times, screening begins. Cells are seeded in growth media in either black 1536-well or 384-well tissue culture treated plates. Cells are then equilibrated in assay plates via centrifugation and placed in incubators attached to the Dosing Modules at 37° C. for 24 hours before treatment. […] These Tzero (To) plates are read using ultra-sensitive luminescence on Envision plate readers (Perkin Elmer). Treated assay plates are incubated with compound for 72 hours. After 72 hours, plates are developed for endpoint analysis using ATPLite. All data points are collected via automated processes, quality controlled and analyzed using Zalicus software.
The measure of effect in the experiment can be the inhibition of cellular response relative to the untreated level (vehicle alone). […] The inhibition ranges from 0% at the untreated level to 100% when T=0. Inhibition levels are negative for agents that actually increase levels.
(§2) Growth Inhibition (GI) is used as a measure of cell viability. […] A GI reading of 100% represents complete growth inhibition—T72 compound-treated and T0 vehicle signals are matched. […] A GI reading of 200% represents complete death of all cells in the culture well. Compounds reaching an activity plateau of GI 200% are considered cytotoxic. GI is calculated by applying the following test and equation:
(§3) Combination analysis data were collected in a 6×6 dose matrix. Synergy is calculated by comparing a combination's response to those of its single compound, against the drug-with-itself dose-additive reference model. Deviations from dose additivity may be assessed visually on an isobologram or numerically with a Combination Index (CI). […] Additive effect is CI=1.0. […] Antagonistic effect is CI>1.0.
(§4) To measure combination effects in excess of Loewe additivity, a scalar measure to characterize the strength of synergistic interaction termed the Synergy Score is devised. The Synergy Score is calculated as:
(§5) The fractional inhibition for each component agent and combination point in the matrix is calculated relative to the median of all vehicle-treated control wells. The Synergy Score equation integrates the experimentally-observed activity volume at each point in the matrix in excess of a model surface numerically derived from the activity of the component agents using the Loewe model for additivity. Additional terms in the Synergy Score equation (above) are used to normalize for various dilution factors used for individual agents and to allow for comparison of synergy scores across an entire experiment. The inclusion of positive inhibition gating or an Idata multiplier removes noise near the zero effect level, and biases results for synergistic interactions at that occur at high activity levels.
Loewe Volume (Loewe Vol) is used to assess the overall magnitude of the combination interaction in excess of the Loewe additivity model. Loewe Volume is particularly useful when distinguishing synergistic increases in a phenotypic activity (positive Loewe Volume) versus synergistic antagonisms (negative Loewe Volume). […] This model defines additivity as a non-synergistic combination interaction where the combination dose matrix surface should be indistinguishable from either drug crossed with itself. The calculation for Loewe additivity is:

[2] = tested on: DOHH-2
[3] = tested on: Farage; conditions: Farage
[4] = tested on: RL
[5] = tested on: KARPAS-422
Protocol: as §1
where T is treated cell count and V is untreated (vehicle) cell count (at 72 hours). I ranges from 0% (when T=V) to 100% (when T=0). […] The measure of effect in the experiment can be the inhibition of cellular response relative to the untreated level (vehicle alone). […] The inhibition ranges from 0% at the untreated level to 100% when T=0. Inhibition levels are negative for agents that actually increase levels. Other effect measures, such as an activity ratio r=T/V may be more appropriate for some assays. When activity ratios (e.g, fold increase over stimulated control) are being used, the effect can be measured using an induction 1=ln(T/V). With this definition, all effect expressions are the same as for inhibition.
as §2, §3, §4, §5
Loewe Volume (Loewe Vol) is used to assess the overall magnitude of the combination interaction in excess of the Loewe additivity model. Loewe Volume is particularly useful when distinguishing synergistic increases in a phenotypic activity (positive Loewe Volume) versus synergistic antagonisms (negative Loewe Volume). […] This model defines additivity as a non-synergistic combination interaction where the combination dose matrix surface should be indistinguishable from either drug crossed with itself.

[6] = tested on: WSU-NHL

C[C@H](Nc1ncnc2[nH]cnc12)c1cc2cccc(Cl)c2c(=O)n1-c1ccccc1 [Compound 1, (S)-3-(1-((9H-purin-6-yl)amino)ethyl)-8-chloro-2-phenylisoquinolin-1(2H)-one]
Synergy Score inhibition ([1]; combination with LEE011): A2 (A2=1 to <3)
CI50 growth inhibition ([1]; combination with PCI-32765): S (S=0.01 to <0.5)
CI50 inhibition ([1]; combination with PCI-32765): S (S=0.01 to <0.5)
Synergy Score growth inhibition ([1]; combination with PCI-32765): A3 (A3=>3)
Synergy Score inhibition ([1]; combination with PCI-32765): A3 (A3=>3)
CI50 growth inhibition ([1]; combination with PD-0332991): S (S=0.01 to <0.5)
CI50 inhibition ([1]; combination with PD-0332991): S (S=0.01 to <0.5)
Synergy Score growth inhibition ([1]; combination with PD-0332991): A3 (A3=>3)
Synergy Score inhibition ([1]; combination with PD-0332991): A2 (A2=1 to <3)
CI50 growth inhibition ([2]; combination with Dexamethasone): S (S=0.01 to <0.5)
CI50 inhibition ([2]; combination with Dexamethasone): S (S=0.01 to <0.5)
Synergy Score growth inhibition ([2]; combination with Dexamethasone): A3 (A3=>3)
Synergy Score inhibition ([2]; combination with Dexamethasone): A3 (A3=>3)
CI50 growth inhibition ([2]; combination with LEE011): T (T=0.5 to <0.7)
CI50 inhibition ([2]; combination with LEE011): U (U=0.7 to <1)
Synergy Score growth inhibition ([2]; combination with LEE011): A3 (A3=>3)
Synergy Score inhibition ([2]; combination with LEE011): A2 (A2=1 to <3)
CI50 growth inhibition ([2]; combination with PCI-32765): S (S=0.01 to <0.5)
CI50 inhibition ([2]; combination with PCI-32765): S (S=0.01 to <0.5)
Synergy Score growth inhibition ([2]; combination with PCI-32765): A3 (A3=>3)
Synergy Score inhibition ([2]; combination with PCI-32765): A3 (A3=>3)
CI50 growth inhibition ([2]; combination with PD-0332991): U (U=0.7 to <1)
CI50 inhibition ([2]; combination with PD-0332991): U (U=0.7 to <1)
Synergy Score growth inhibition ([2]; combination with PD-0332991): A3 (A3=>3)
Synergy Score inhibition ([2]; combination with PD-0332991): A2 (A2=1 to <3)
CI50 growth inhibition ([3]; combination with Dexamethasone): U (U=0.7 to <1)
CI50 inhibition ([3]; combination with Dexamethasone): S (S=0.01 to <0.5)
Synergy Score growth inhibition ([3]; combination with Dexamethasone): A3 (A3=>3)
Synergy Score inhibition ([3]; combination with Dexamethasone): A3 (A3=>3)
CI50 growth inhibition ([3]; combination with LEE011): W (W=≥1)
CI50 inhibition ([3]; combination with LEE011): W (W=≥1)
Synergy Score growth inhibition ([3]; combination with LEE011): A1 (A1=0.0001 to <1)
Synergy Score inhibition ([3]; combination with LEE011): A1 (A1=0.0001 to <1)
CI50 growth inhibition ([3]; combination with PCI-32765): S (S=0.01 to <0.5)
CI50 inhibition ([3]; combination with PCI-32765): S (S=0.01 to <0.5)
Synergy Score growth inhibition ([3]; combination with PCI-32765): A3 (A3=>3)
Synergy Score inhibition ([3]; combination with PCI-32765): A3 (A3=>3)
CI50 growth inhibition ([3]; combination with PD-0332991): T (T=0.5 to <0.7)
CI50 inhibition ([3]; combination with PD-0332991): S (S=0.01 to <0.5)
Synergy Score growth inhibition ([3]; combination with PD-0332991): A2 (A2=1 to <3)
Synergy Score inhibition ([3]; combination with PD-0332991): A2 (A2=1 to <3)
CI50 growth inhibition ([4]; combination with Dexamethasone): T (T=0.5 to <0.7)
CI50 inhibition ([4]; combination with Dexamethasone): T (T=0.5 to <0.7)
Synergy Score growth inhibition ([4]; combination with Dexamethasone): A3 (A3=>3)
Synergy Score inhibition ([4]; combination with Dexamethasone): A3 (A3=>3)
CI50 growth inhibition ([4]; combination with LEE011): T (T=0.5 to <0.7)
CI50 inhibition ([4]; combination with LEE011): U (U=0.7 to <1)
Synergy Score growth inhibition ([4]; combination with LEE011): A2 (A2=1 to <3)
Synergy Score inhibition ([4]; combination with LEE011): A1 (A1=0.0001 to <1)
CI50 growth inhibition ([4]; combination with PCI-32765): S (S=0.01 to <0.5)
CI50 inhibition ([4]; combination with PCI-32765): S (S=0.01 to <0.5)
Synergy Score growth inhibition ([4]; combination with PCI-32765): A2 (A2=1 to <3)
Synergy Score inhibition ([4]; combination with PCI-32765): A2 (A2=1 to <3)
CI50 growth inhibition ([4]; combination with PD-0332991): S (S=0.01 to <0.5)
CI50 inhibition ([4]; combination with PD-0332991): S (S=0.01 to <0.5)
Synergy Score growth inhibition ([4]; combination with PD-0332991): A2 (A2=1 to <3)
Synergy Score inhibition ([4]; combination with PD-0332991): A2 (A2=1 to <3)
CI50 growth inhibition ([5]; combination with Dexamethasone): U (U=0.7 to <1)
CI50 inhibition ([5]; combination with Dexamethasone): T (T=0.5 to <0.7)
Synergy Score growth inhibition ([5]; combination with Dexamethasone): A3 (A3=>3)
Synergy Score inhibition ([5]; combination with Dexamethasone): A2 (A2=1 to <3)
CI50 growth inhibition ([5]; combination with LEE011): S (S=0.01 to <0.5)
CI50 inhibition ([5]; combination with LEE011): S (S=0.01 to <0.5)
Synergy Score growth inhibition ([5]; combination with LEE011): A2 (A2=1 to <3)
Synergy Score inhibition ([5]; combination with LEE011): A2 (A2=1 to <3)
CI50 growth inhibition ([5]; combination with PCI-32765): S (S=0.01 to <0.5)
CI50 inhibition ([5]; combination with PCI-32765): S (S=0.01 to <0.5)
Synergy Score growth inhibition ([5]; combination with PCI-32765): A3 (A3=>3)
Synergy Score inhibition ([5]; combination with PCI-32765): A2 (A2=1 to <3)
CI50 growth inhibition ([5]; combination with PD-0332991): S (S=0.01 to <0.5)
CI50 inhibition ([5]; combination with PD-0332991): S (S=0.01 to <0.5)
Synergy Score growth inhibition ([5]; combination with PD-0332991): A2 (A2=1 to <3)
Synergy Score inhibition ([5]; combination with PD-0332991): A2 (A2=1 to <3)
CI50 growth inhibition ([6]; combination with Dexamethasone): S (S=0.01 to <0.5)
CI50 inhibition ([6]; combination with Dexamethasone): S (S=0.01 to <0.5)
Synergy Score growth inhibition ([6]; combination with Dexamethasone): A3 (A3=>3)
Synergy Score inhibition ([6]; combination with Dexamethasone): A3 (A3=>3)
CI50 growth inhibition ([6]; combination with LEE011): S (S=0.01 to <0.5)
CI50 inhibition ([6]; combination with LEE011): S (S=0.01 to <0.5)
Synergy Score growth inhibition ([6]; combination with LEE011): A2 (A2=1 to <3)
Synergy Score inhibition ([6]; combination with LEE011): A2 (A2=1 to <3)
CI50 growth inhibition ([6]; combination with PCI-32765): S (S=0.01 to <0.5)
CI50 inhibition ([6]; combination with PCI-32765): S (S=0.01 to <0.5)
Synergy Score growth inhibition ([6]; combination with PCI-32765): A3 (A3=>3)
Synergy Score inhibition ([6]; combination with PCI-32765): A3 (A3=>3)
CI50 growth inhibition ([6]; combination with PD-0332991): S (S=0.01 to <0.5)
CI50 inhibition ([6]; combination with PD-0332991): S (S=0.01 to <0.5)
